# Data: ChEMBL document CHEMBL1909294, “Translating clinical findings into knowledge in drug safety evaluation--drug induced liver injury prediction system (DILIps)” (PLoS Comput Biol, 2011)
# Tests used:
# [1] = tested on: Hepatotoxicity;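 on HepSE bilirubinemia: bilirubinemia hepatic side effect score drawn from the DILIps training data, a prediction system for drug-induced liver injury; call rule not given here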;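 on HepSE cholecystitis: Cholecystitis-related hepatic side effect score drawn from the DILIps (drug-induced liver injury prediction) training data set; call rule not given here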;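 on HepSE cholelithiasis: hepatic side effect score for cholelithiasis, drawn from the DILIps training data for predicting drug-induced liver injury; call rule not given here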;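 on HepSE cirrhosis: cirrhosis hepatic side effect score taken from the DILIps (drug-induced liver injury prediction) training set; call rule not given here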;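 on HepSE elevated liver function tests: hepatic side effect score for raised liver function tests, as recorded in the DILIps training set used for predicting drug-induced liver injury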; on HepSE hepatic failure: call rule not given here;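 on HepSE hepatomegaly: hepatic side effect score for hepatomegaly, taken from the training set of the DILIps drug-induced liver injury prediction system; call rule not given here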
# [2] = tested on: Hepatotoxicity; remark: listed apart in the source;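 on HepSE bilirubinemia: bilirubinemia hepatic side effect score drawn from the DILIps training data, a prediction system for drug-induced liver injury; call rule not given here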;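 on HepSE cholecystitis: Cholecystitis-related hepatic side effect score drawn from the DILIps (drug-induced liver injury prediction) training data set; call rule not given here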;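 on HepSE cholelithiasis: hepatic side effect score for cholelithiasis, drawn from the DILIps training data for predicting drug-induced liver injury; call rule not given here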;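 on HepSE cirrhosis: cirrhosis hepatic side effect score taken from the DILIps (drug-induced liver injury prediction) training set; call rule not given here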;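 on HepSE elevated liver function tests: hepatic side effect score for raised liver function tests, as recorded in the DILIps training set used for predicting drug-induced liver injury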; on HepSE hepatic failure: call rule not given here;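 on HepSE hepatomegaly: hepatic side effect score for hepatomegaly, taken from the training set of the DILIps drug-induced liver injury prediction system; call rule not given here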
# [3] = tested on: Hepatotoxicity; remark: listed apart in the source;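 on HepSE bilirubinemia: bilirubinemia hepatic side effect score drawn from the DILIps training data, a prediction system for drug-induced liver injury; call rule not given here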;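 on HepSE cholecystitis: Cholecystitis-related hepatic side effect score drawn from the DILIps (drug-induced liver injury prediction) training data set; call rule not given here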;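 on HepSE cholelithiasis: hepatic side effect score for cholelithiasis, drawn from the DILIps training data for predicting drug-induced liver injury; call rule not given here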;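 on HepSE cirrhosis: cirrhosis hepatic side effect score taken from the DILIps (drug-induced liver injury prediction) training set; call rule not given here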;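 on HepSE elevated liver function tests: hepatic side effect score for raised liver function tests, as recorded in the DILIps training set used for predicting drug-induced liver injury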; on HepSE hepatic failure: call rule not given here
# [4] = tested on: Hepatotoxicity; remark: listed apart in the source;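 on HepSE bilirubinemia: bilirubinemia hepatic side effect score drawn from the DILIps training data, a prediction system for drug-induced liver injury; call rule not given here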;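 on HepSE cholecystitis: Cholecystitis-related hepatic side effect score drawn from the DILIps (drug-induced liver injury prediction) training data set; call rule not given here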;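 on HepSE cholelithiasis: hepatic side effect score for cholelithiasis, drawn from the DILIps training data for predicting drug-induced liver injury; call rule not given here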;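 on HepSE cirrhosis: cirrhosis hepatic side effect score taken from the DILIps (drug-induced liver injury prediction) training set; call rule not given here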;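 on HepSE elevated liver function tests: hepatic side effect score for raised liver function tests, as recorded in the DILIps training set used for predicting drug-induced liver injury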; on HepSE hepatic failure: call rule not given here
# [5] = tested on: Hepatotoxicity; remark: listed apart in the source; on HepSE hepatic failure: call rule not given here
# [6] = tested on: Hepatotoxicity; remark: listed apart in the source; on HepSE hepatic failure: call rule not given here
# [7] = tested on: Hepatotoxicity; remark: listed apart in the source
# [8] = tested on: Hepatotoxicity; remark: listed apart in the source
# [9] = tested on: Hepatotoxicity; remark: listed apart in the source
# [10] = tested on: Hepatotoxicity; remark: listed apart in the source
# [11] = tested on: Hepatotoxicity; remark: listed apart in the source
# [12] = tested on: Hepatotoxicity; remark: listed apart in the source
# [13] = tested on: Hepatotoxicity; remark: listed apart in the source
# [14] = tested on: Hepatotoxicity; remark: listed apart in the source
compound,measurement,setting,value
CNS(=O)(=O)CCc1ccc2[nH]cc(C3CCN(C)CC3)c2c1,HepSE_bilirubinemia,[1],0
same,HepSE_cholecystitis,[2],0
same,HepSE_cholelithiasis,[3],0
same,HepSE_cirrhosis,[4],0
same,HepSE_elevated liver function tests,[5],0
same,HepSE_hepatic failure,[6],0
same,HepSE_hepatic necrosis,[7],0
same,HepSE_hepatitis,[8],0
same,HepSE_hepatomegaly,[9],0
same,HepSE_jaundice,[10],0
same,HepSE_liver disease,[11],0
same,HepSE_liver fatty,[12],0
same,HepSE_liver function tests abnormal,[13],1
same,HepSE_Combined Scores,[14],1
CC(C)(O)c1ccccc1CC[C@@H](SCC1(CC(=O)O)CC1)c1cccc(/C=C/c2ccc3ccc(Cl)cc3n2)c1 [MONTELUKAST],HepSE_bilirubinemia,[1],0
same,HepSE_cholecystitis,[2],0
same,HepSE_cholelithiasis,[3],0
same,HepSE_cirrhosis,[4],0
same,HepSE_elevated liver function tests,[5],0
same,HepSE_hepatic failure,[6],0
same,HepSE_hepatic necrosis,[7],0
same,HepSE_hepatitis,[8],1
same,HepSE_hepatomegaly,[9],0
same,HepSE_jaundice,[10],0
same,HepSE_liver disease,[11],1
same,HepSE_liver fatty,[12],0
same,HepSE_liver function tests abnormal,[13],0
same,HepSE_Combined Scores,[14],2
CC(C)[C@@H]1NC(=O)[C@H](CCCCN)NC(=O)[C@@H](Cc2c[nH]c3ccccc23)NC(=O)[C@H](Cc2ccc(O)cc2)NC(=O)[C@@H](NC(=O)[C@H](N)Cc2ccc3ccccc3c2)CSSC[C@@H](C(=O)N[C@H](C(N)=O)[C@@H](C)O)NC1=O [LANREOTIDE],HepSE_bilirubinemia,[1],1
same,HepSE_cholecystitis,[2],1
same,HepSE_cholelithiasis,[3],1
same,HepSE_cirrhosis,[4],0
same,HepSE_elevated liver function tests,[5],0
same,HepSE_hepatic failure,[6],0
same,HepSE_hepatic necrosis,[7],0
same,HepSE_hepatitis,[8],0
same,HepSE_hepatomegaly,[9],1
same,HepSE_jaundice,[10],0
same,HepSE_liver disease,[11],0
same,HepSE_liver fatty,[12],0
same,HepSE_liver function tests abnormal,[13],0
same,HepSE_Combined Scores,[14],4
CC(CN(C)C)CN1c2ccccc2CCc2ccccc21 (stereo not drawn) [TRIMIPRAMINE],HepSE_bilirubinemia,[1],0
same,HepSE_cholecystitis,[2],0
same,HepSE_cholelithiasis,[3],0
same,HepSE_cirrhosis,[4],0
same,HepSE_elevated liver function tests,[5],0
same,HepSE_hepatic failure,[6],0
same,HepSE_hepatic necrosis,[7],0
same,HepSE_hepatitis,[8],0
same,HepSE_hepatomegaly,[9],0
same,HepSE_jaundice,[10],1
same,HepSE_liver disease,[11],0
same,HepSE_liver fatty,[12],0
same,HepSE_liver function tests abnormal,[13],0
same,HepSE_Combined Scores,[14],1
OC(c1cc(C(F)(F)F)nc2c(C(F)(F)F)cccc12)C1CCCCN1 (stereo not drawn) [MEFLOQUINE],HepSE_bilirubinemia,[1],0
same,HepSE_cholecystitis,[2],0
same,HepSE_cholelithiasis,[3],0
same,HepSE_cirrhosis,[4],0
same,HepSE_elevated liver function tests,[5],0
same,HepSE_hepatic failure,[6],0
same,HepSE_hepatic necrosis,[7],0
same,HepSE_hepatitis,[8],0
same,HepSE_hepatomegaly,[9],0
same,HepSE_jaundice,[10],0
same,HepSE_liver disease,[11],0
same,HepSE_liver fatty,[12],0
same,HepSE_liver function tests abnormal,[13],0
same,HepSE_Combined Scores,[14],0
NC[C@H](O)c1ccc(O)c(O)c1 [NOREPINEPHRINE],HepSE_bilirubinemia,[1],0
same,HepSE_cholecystitis,[2],0
same,HepSE_cholelithiasis,[3],0
same,HepSE_cirrhosis,[4],0
same,HepSE_elevated liver function tests,[5],0
same,HepSE_hepatic failure,[6],0
same,HepSE_hepatic necrosis,[7],0
same,HepSE_hepatitis,[8],0
same,HepSE_hepatomegaly,[9],0
same,HepSE_jaundice,[10],0
same,HepSE_liver disease,[11],0
same,HepSE_liver fatty,[12],0
same,HepSE_liver function tests abnormal,[13],0
same,HepSE_Combined Scores,[14],0
CC1=C(C(=O)O)N2C(=O)[C@@H](NC(=O)[C@H](N)C3=CCC=CC3)[C@H]2SC1 [CEPHRADINE],HepSE_bilirubinemia,[1],0
same,HepSE_cholecystitis,[2],0
same,HepSE_cholelithiasis,[3],0
same,HepSE_cirrhosis,[4],0
same,HepSE_elevated liver function tests,[5],0
same,HepSE_hepatic failure,[6],0
same,HepSE_hepatic necrosis,[7],0
same,HepSE_hepatitis,[8],0
same,HepSE_hepatomegaly,[9],0
same,HepSE_jaundice,[10],0
same,HepSE_liver disease,[11],0
same,HepSE_liver fatty,[12],0
same,HepSE_liver function tests abnormal,[13],0
same,HepSE_Combined Scores,[14],0
N#Cc1cc(NC(=O)C(=O)O)c(Cl)c(NC(=O)C(=O)O)c1 [LODOXAMIDE],HepSE_bilirubinemia,[1],0
same,HepSE_cholecystitis,[2],0
same,HepSE_cholelithiasis,[3],0
same,HepSE_cirrhosis,[4],0
same,HepSE_elevated liver function tests,[5],0
same,HepSE_hepatic failure,[6],0
same,HepSE_hepatic necrosis,[7],0
same,HepSE_hepatitis,[8],0
same,HepSE_hepatomegaly,[9],0
same,HepSE_jaundice,[10],0
same,HepSE_liver disease,[11],0
same,HepSE_liver fatty,[12],0
same,HepSE_liver function tests abnormal,[13],0
same,HepSE_Combined Scores,[14],0
CN(C)[C@@H]1C(O)=C(C(N)=O)C(=O)[C@@]2(O)C(O)=C3C(=O)c4c(O)cccc4[C@@](C)(O)[C@H]3[C@H](O)[C@@H]12 [OXYTETRACYCLINE],HepSE_bilirubinemia,[1],0
same,HepSE_cholecystitis,[2],0
same,HepSE_cholelithiasis,[3],0
same,HepSE_cirrhosis,[4],0
same,HepSE_elevated liver function tests,[5],0
same,HepSE_hepatic failure,[6],0
same,HepSE_hepatic necrosis,[7],0
same,HepSE_hepatitis,[8],0
same,HepSE_hepatomegaly,[9],0
same,HepSE_jaundice,[10],0
same,HepSE_liver disease,[11],0
same,HepSE_liver fatty,[12],0
same,HepSE_liver function tests abnormal,[13],0
same,HepSE_Combined Scores,[14],0
O=C1CC2(CCCC2)CC(=O)N1CCCCN1CCN(c2ncccn2)CC1 [BUSPIRONE],HepSE_bilirubinemia,[1],0
same,HepSE_cholecystitis,[2],0
same,HepSE_cholelithiasis,[3],0
same,HepSE_cirrhosis,[4],0
same,HepSE_elevated liver function tests,[5],0
same,HepSE_hepatic failure,[6],0
same,HepSE_hepatic necrosis,[7],0
same,HepSE_hepatitis,[8],0
same,HepSE_hepatomegaly,[9],0
same,HepSE_jaundice,[10],0
same,HepSE_liver disease,[11],0
same,HepSE_liver fatty,[12],0
same,HepSE_liver function tests abnormal,[13],0
same,HepSE_Combined Scores,[14],0
CC(C(=O)O)c1cccc(C(=O)c2ccccc2)c1 (stereo not drawn) [KETOPROFEN],HepSE_bilirubinemia,[1],0
same,HepSE_cholecystitis,[2],0
same,HepSE_cholelithiasis,[3],0
same,HepSE_cirrhosis,[4],0
same,HepSE_elevated liver function tests,[5],0
same,HepSE_hepatic failure,[6],0
same,HepSE_hepatic necrosis,[7],0
same,HepSE_hepatitis,[8],1
same,HepSE_hepatomegaly,[9],0
same,HepSE_jaundice,[10],1
same,HepSE_liver disease,[11],0
same,HepSE_liver fatty,[12],0
same,HepSE_liver function tests abnormal,[13],0
same,HepSE_Combined Scores,[14],2
CCCN(CCC)CCc1cccc2c1CC(=O)N2 [ROPINIROLE],HepSE_bilirubinemia,[1],1
same,HepSE_cholecystitis,[2],1
same,HepSE_cholelithiasis,[3],1
same,HepSE_cirrhosis,[4],0
same,HepSE_elevated liver function tests,[5],0
same,HepSE_hepatic failure,[6],0
same,HepSE_hepatic necrosis,[7],0
same,HepSE_hepatitis,[8],1
same,HepSE_hepatomegaly,[9],0
same,HepSE_jaundice,[10],0
same,HepSE_liver disease,[11],0
same,HepSE_liver fatty,[12],0
same,HepSE_liver function tests abnormal,[13],0
same,HepSE_Combined Scores,[14],4
CC1CNc2c(cccc2S(=O)(=O)N[C@@H](CCCNC(=N)N)C(=O)N2CC[C@@H](C)C[C@@H]2C(=O)O)C1 (stereo partly drawn) [ARGATROBAN],HepSE_bilirubinemia,[1],0
same,HepSE_cholecystitis,[2],0
same,HepSE_cholelithiasis,[3],0
same,HepSE_cirrhosis,[4],0
same,HepSE_elevated liver function tests,[5],0
same,HepSE_hepatic failure,[6],0
same,HepSE_hepatic necrosis,[7],0
same,HepSE_hepatitis,[8],0
same,HepSE_hepatomegaly,[9],0
same,HepSE_jaundice,[10],0
same,HepSE_liver disease,[11],0
same,HepSE_liver fatty,[12],0
same,HepSE_liver function tests abnormal,[13],0
same,HepSE_Combined Scores,[14],0
Cc1cccc(C)c1OCC(C)N (stereo not drawn) [MEXILETINE],HepSE_bilirubinemia,[1]; Liver,0
same,HepSE_cholecystitis,[2]; Liver,0
same,HepSE_cholelithiasis,[3]; Liver,0
same,HepSE_cirrhosis,[4]; Liver,0
same,HepSE_elevated liver function tests,[5]; Liver,0
same,HepSE_hepatic failure,[6]; Liver,0
same,HepSE_hepatic necrosis,[7]; Liver,1
same,HepSE_hepatitis,[8]; Liver,1
same,HepSE_hepatomegaly,[9]; Liver,0
same,HepSE_jaundice,[10]; Liver,0
same,HepSE_liver disease,[11]; Liver,0
same,HepSE_liver fatty,[12]; Liver,0
same,HepSE_liver function tests abnormal,[13]; Liver,1
same,HepSE_Combined Scores,[14]; Liver,3
CC(C)C[C@H]1C(=O)N2CCC[C@H]2[C@]2(O)O[C@](NC(=O)[C@@H]3C=C4c5cccc6[nH]c(Br)c(c56)C[C@H]4N(C)C3)(C(C)C)C(=O)N12 [BROMOCRIPTINE],HepSE_bilirubinemia,[1],0
same,HepSE_cholecystitis,[2],0
same,HepSE_cholelithiasis,[3],0
same,HepSE_cirrhosis,[4],0
same,HepSE_elevated liver function tests,[5],0
same,HepSE_hepatic failure,[6],0
same,HepSE_hepatic necrosis,[7],0
same,HepSE_hepatitis,[8],0
same,HepSE_hepatomegaly,[9],0
same,HepSE_jaundice,[10],0
same,HepSE_liver disease,[11],0
same,HepSE_liver fatty,[12],0
same,HepSE_liver function tests abnormal,[13],0
same,HepSE_Combined Scores,[14],0
O=C1NC(c2ccccc2)(c2ccccc2)C(=O)N1COP(=O)(O)O [FOSPHENYTOIN],HepSE_bilirubinemia,[1],0
same,HepSE_cholecystitis,[2],0
same,HepSE_cholelithiasis,[3],0
same,HepSE_cirrhosis,[4],0
same,HepSE_elevated liver function tests,[5],0
same,HepSE_hepatic failure,[6],0
same,HepSE_hepatic necrosis,[7],0
same,HepSE_hepatitis,[8],0
same,HepSE_hepatomegaly,[9],0
same,HepSE_jaundice,[10],0
same,HepSE_liver disease,[11],0
same,HepSE_liver fatty,[12],0
same,HepSE_liver function tests abnormal,[13],1
same,HepSE_Combined Scores,[14],1
O=C1C(O)=C([C@H]2CC[C@H](c3ccc(Cl)cc3)CC2)C(=O)c2ccccc21 [ATOVAQUONE],HepSE_bilirubinemia,[1],0
same,HepSE_cholecystitis,[2],0
same,HepSE_cholelithiasis,[3],0
same,HepSE_cirrhosis,[4],0
same,HepSE_elevated liver function tests,[5],0
same,HepSE_hepatic failure,[6],1
same,HepSE_hepatic necrosis,[7],0
same,HepSE_hepatitis,[8],1
same,HepSE_hepatomegaly,[9],0
same,HepSE_jaundice,[10],0
same,HepSE_liver disease,[11],0
same,HepSE_liver fatty,[12],0
same,HepSE_liver function tests abnormal,[13],0
same,HepSE_Combined Scores,[14],2
